Test results as given in patent US10335382B2, “Use of hydrogen sulfide synthesis inhibitors for cancer therapy” (THE BOARD OF REGENTS OF THE UNIVERSITY OF TEXAS SYSTEM, priority 2013, dated 2019).

Legend:
NCM356 cells = assay: NCM356 non-malignant colonic epithelial cell proliferation (xCELLigence); type: cell-based, human; details: AOAA 1 mM
Procedure: Cellular proliferation assays are conducted in HCT116 CRC cells in vitro, using the Roche XCelligence method. Concentration-response curves with the various AOAA analogs are prepared (concentration range: 1, 3, 10, 100, 300 and 600 μM). AOAA is used as the reference control, which, according to preliminary data, has an IC50 of approximately 300 μM. Control proliferation studies in the non-carcinogenic colonic epithelial cell line NCM356 are used to confirm cancer-cell selectivity. Since the NCM356 cells contain low levels of CBS, based on previous studies it is expect that AOAA (and its prodrugs) will only exert modest antiproliferative effects in these cells. Proliferation-inhibitory effects of the AOAA prodrugs in NCM356 cells indicate CBS-independent pharmacological actions. […]
Cellular migration and invasion assays were performed as described (Chao et al. (1996) Cancer Res. 56:4811-19). […] Migrated and invaded cells were then fixed in Carson's fixative, stained in 0.33% toluidine blue and quantified by visual counting. For the HCT116-EAhy926 co-culture experiment, the cancer cell line was grown to confluence in the bottom wells of the transwell chambers and then endothelial cell migration was assessed (Coletta et al. (2012) Proc Natl Acad Sci USA. 109:9161-66). […]

HCT116 cells = assay: Bioenergetic analysis in intact cells (XF24 Extracellular Flux Analyzer); type: cell-based, human; details: AOAA 1 mM
Procedure: The XF24 Extracellular Flux Analyzer (Seahorse Bioscience, Billerica, Mass.) was used to measure bioenergetic function as described in Módis et al. ((2013) FASEB J 27:601-11) and Wu et al. ((2007) Am J Physiol Cell Physiol. 292:C125-36). Oxygen consumption rate (OCR) after oligomycin (1.5 μg/ml) was used to assess ATP production rate and OCR after FCCP (0.5 μM) to assess maximal mitochondrial respiratory capacity. 2-deoxyglucose (100 mM) was used to estimate cellular glycolytic dependency and antimycin A (2 μg/m) and rotenone (2 μM) were used to inhibit the flux of electrons through complex III and I, to detect residual non-mitochondrial activity. For the measurement of glycolytic parameters, the changes in proton production rate (PPR) were monitored in response to the sequential administration of D-glucose (10 mM), oligomycin (1.5 μM) and 2-deoxyglucose (100 mM), to assess glycolysis, maximal glycolytic capacity, glycolytic reserve capacity, and non-glycolytic acidification rate, respectively. GAPDH activity was determined by a kinetic assay (ScienCell, Carlsbad, Calif.).

For `NOCC(=O)O` [AOAA, aminooxyacetic acid], the NCM356 growth (NCM356 cells) was “did not affect”, the “basal OCR, calculated ATP production, maximal respiration and Spare Respiratory Capacity” value (HCT116 cells) was “significantly decreased” and the “maximal glycolytic capacity and glycolytic reserve capacity” value (HCT116 cells) was “significantly diminished”.
